Measured values from US20260285857A1, “BICYCLIC AND HETEROCYCLIC AMIDE COMPOUNDS” (priority 2024, published 2026).

system: immunoglobulin light chain protein WIL-FL T46L; assay: Differential scanning fluorimetry (thermal shift) assay; assay type: binding; details: Table A; temperature shift [Tm]compound-[Tm]vehicle; recombinant WIL-FL T46L

Structure (SMILES) | DSF
Cc1cc(N2CC[C@](C)(c3ccccc3)C2)cn2nc(C(=O)NC3CC(N4CC5C(C4)C5C(=O)O)C3)nc12 (some centres unmarked) [Compound 354] | ***** (>2.5° C.=*****)
Cc1cc(N2CC[C@](C)(c3ccccc3)C2)cn2nc(C(=O)NC3CC4(C3)CC(N3CC5C(C3)C5C(=O)O)C4)nc12 (some centres unmarked) [Compound 364] | ***** (>2.5° C.=*****)
Cc1cc(N2CC[C@](C)(c3ccccc3)C2)cn2nc(S(=O)(=O)NCC(C)(C)O)nc12 [Compound 323] | ***** (>2.5° C.=*****)
Cc1cc(N2CC[C@](C)(c3ccccc3)C2)cn2nc(C(=O)NC(C)(C)C(=O)O)nc12 [Compound 169] | ***** (>2.5° C.=*****)
Cc1cc(N2CC[C@](C)(c3ccccc3)C2)cn2nc(C34CC(CO3)C4Cn3cc(C(=O)O)nn3)nc12 (some centres unmarked) [Compound 91] | ***** (>2.5° C.=*****)
Cc1cc(N2CC[C@](C)(c3ccccc3)C2)cn2nc(C(=O)NC3CC(O)(C(F)(F)F)C3)nc12 (some centres unmarked) [Compound 205] | ***** (>2.5° C.=*****)
Cc1cc(N2CC[C@@](c3ccccc3)(C(F)F)C2)cn2nc(C(=O)NCC(C)(C)O)nc12 [Compound 327] | ***** (>2.5° C.=*****)
Cc1cc(N2CC[C@](C)(c3ccccc3)C2)cn2nc(C(=O)NC3CC4(C3)CN(c3ccnc(O)c3)C4)nc12 [Compound 223] | ***** (>2.5° C.=*****)
Cc1cc(N2CCC(C)(C3CC4(CCC4)C3)C2)cn2nc(C(=O)N3C[C@@H]4CN(c5cccc(C(=O)O)n5)C[C@@H]4C3)nc12 (some centres unmarked) [Compound 296] | ** (>0.5-1 °C =**)
CNS(=O)(=O)c1nc2c(C)cc(N3CC[C@](C)(c4ccccc4)C3)cn2n1 [Compound 324] | ***** (>2.5° C.=*****)
Cc1cc(OC[C@H](C)c2ccccc2)cn2nc(C(=O)NC3CCN(c4cccc(C(=O)O)n4)CC3)nc12 [Compound 307] | ***** (>2.5° C.=*****)
Cc1nc(C2C3(CN)COC2(c2nc4c(C)cc(N5CC[C@](C)(c6ccccc6)C5)cn4n2)C3)n[nH]1 (some centres unmarked) [Compound 46] | ***** (>2.5° C.=*****)
Cc1cc(N2CC[C@](C)(c3ccccc3)C2)cn2nc(C34CC(CO3)C4c3cn(C)nn3)nc12 (stereo partly drawn) [Compound 11, 8-methyl-6-[(3R)-3-methyl-3-phenyl-pyrrolidin-1-yl]-2-[5-(1-methyltriazol-4-yl)-2-oxabicyclo[2.1.1]hexan-1-yl]-[1,2,4]triazolo[1,5-a]pyridine] | ***** (>2.5° C.=*****)
Cc1cc(N2CC[C@](C)(c3ccccc3)C2)cn2nc(C(=O)N3CCC4(CC3)CC(N3CC5C(C3)C5C(=O)O)CO4)nc12 (some centres unmarked) [Compound 370] | ***** (>2.5° C.=*****)
Cc1cc(N2CC[C@](C)(c3ccccc3)C2)cn2nc(C(=O)N[C@H]3COC[C@@H]3F)nc12 [Compound 121] | ***** (>2.5° C.=*****)
Cc1cc(N2CC[C@](C)(c3ccccc3)C2)cn2nc(C(=O)NC3CCOCC3)nc12 [Compound 198] | ***** (>2.5° C.=*****)
Cc1cc(N2CC[C@](C)(c3ccccc3)C2)cn2nc(C34CC(CO3)C4Cn3cc(C(N)=O)nn3)nc12 (some centres unmarked) [Compound 92] | ***** (>2.5° C.=*****)

Structure (SMILES) | DSF
Cc1cc(N2CCC(C)(c3ccc(F)cc3F)C2)cn2nc(C(=O)N3C[C@@H]4CN(c5cccc(C(=O)O)n5)C[C@@H]4C3)nc12 (some centres unmarked) [Compound 388] | **** (>1.5-2.5° C.=****)
CNC(=O)c1nc2c(C(C)C)cc(N3CC[C@](C)(c4ccccc4)C3)cn2n1 [Compound 337] | **** (>1.5-2.5° C.=****)
CNC(=O)C1C2COC1(c1nc3c(C)cc(N4CC[C@](C)(c5ccccc5)C4)cn3n1)C2 (some centres unmarked) [Example 72] | ***** (>2.5° C.=*****)
Cc1cc(N2CC[C@](C)(c3ccccc3)C2)cn2nc(C(=O)NCC34CCCN3CC(F)C4)nc12 (some centres unmarked) [Compound 171] | ***** (>2.5° C.=*****)
Cc1cc(N2CC[C@](C)(c3ccccc3)C2)cn2nc(C(=O)NC3CCC(O)(C(F)(F)F)C3)nc12 (some centres unmarked) [Compound 104] | ***** (>2.5° C.=*****)
Cc1cc(OC[C@H](C)c2cccc(F)c2)cn2nc(C(=O)NC3CCN(c4ccnc(C(=O)O)c4)CC3)nc12 [Compound 308] | ***** (>2.5° C.=*****)
Cc1cc(N2CC[C@](C)(c3ccccc3)C2)cn2nc(C(C)(C)OC3CCNC3)nc12 (some centres unmarked) [Compound 168] | **** (>1.5-2.5° C.=****)
COC(=O)c1cc(-n2nnc3c2CCN(C(=O)c2nc4c(C)cc(N5CC[C@](C)(c6ccccc6)C5)cn4n2)C3)ccn1 [Compound 402] | ***** (>2.5° C.=*****)
CNC(=O)c1nc2c(C)cc(N3CC[C@](c4ccccc4)(C(F)F)C3)cn2n1 [Compound 328] | **** (>1.5-2.5° C.=****)
Cc1cc(N2CC[C@](C)(c3ccccc3)C2)cn2nc(C(=O)NC3COCC3(C)O)nc12 (some centres unmarked) [Compound 141] | ***** (>2.5° C.=*****)
CCc1cc(N2CC[C@](C)(c3ccccc3)C2)cn2nc(C(=O)NC)nc12 [Compound 339] | ***** (>2.5° C.=*****)
Cc1cc(N2CCOC(C)(c3ccccc3)C2)cn2nc(C(=O)N3CC4CN(c5cccc(C(=O)O)n5)CC4C3)nc12 (centres unmarked) [Compound 432] | * (0-0.5° C.=*)
Cc1cc(N2CC[C@](C)(c3ccccc3)C2)cn2nc(C(=O)NC3CCC(F)(F)C3)nc12 (some centres unmarked) [Compound 154] | ***** (>2.5° C.=*****)
Cc1cc(N2CC[C@](C)(c3ccccc3)C2)cn2nc(C34CC(CO3)C4Cn3ncnc3C)nc12 (some centres unmarked) [Compound 82] | ***** (>2.5° C.=*****)
Cc1cc(N2CCC(NC(=O)c3nc4c(C)cc(N5CC[C@](C)(c6ccccc6)C5)cn4n3)CC2)cc(C(=O)O)n1 [Compound 251] | ***** (>2.5° C.=*****)
Cc1cc(N2CC[C@](C)(c3ccccc3)C2)cn2nc(C(=O)N3CC[C@@]4(CCN(C5CCC(C(=O)O)CC5)C4)C3)nc12 (some centres unmarked) [Compound 376] | ***** (>2.5° C.=*****)
Cc1cc(N2CC[C@](C)(c3ccccc3)C2)cn2nc(C(=O)NC3CCN(c4ccnc(-c5nnn[nH]5)c4)CC3)nc12 [Compound 284] | ***** (>2.5° C.=*****)

same assay, conditions: Table B; temperature shift [Tm]compound-[Tm]vehicle; recombinant WIL-FL T46L

Structure (SMILES) | DSF
Cc1cc(N2CC[C@](C)(c3ccccc3)C2)cn2nc(C(=O)N[C@@H]3CN(c4cccc(C(=O)O)n4)CC3(C)C)nc12 [Compound 683] | ***** (>2.5° C.=*****)
Cc1nc(N2CC3(CC(NC(=O)c4nc5c(C)cc(N6CC[C@](C)(c7ccccc7)C6)cn5n4)C3)C2)ccc1C(=O)O [Compound 663] | ***** (>2.5° C.=*****)
COc1ccc(N2CCC3(CCN(C(=O)c4nc5c(C)cc(N6CC[C@](C)(c7ccccc7)C6)cn5n4)C3)C2)nc1C(=O)O (some centres unmarked) [Compound 625] | ***** (>2.5° C.=*****)
COC(C)(CC(=O)N1CC[C@@]2(CCN(C(=O)c3nc4c(C)cc(N5CC[C@](C)(c6ccccc6)C5)cn4n3)C2)C1)C(=O)O (stereo partly drawn) [Compound 706, 2-methoxy-2-methyl-4-[(5R)-2-[8-methyl-6-[(3R)-3-methyl-3-phenyl-pyrrolidin-1-yl]-[1,2,4]triazolo[1,5-a]pyridine-2-carbonyl]-2,7-diazaspiro[4.4]nonan-7-yl]-4-oxo-butanoic acid] | ***** (>2.5° C.=*****)
Cc1cc(N2CC[C@](C)(c3ccccc3)C2)cn2nc(C(=O)N3CC4C(C3)C4Nc3cccc(C(=O)O)n3)nc12 (some centres unmarked) [Compound 622] | ***** (>2.5° C.=*****)
Cc1cc(N2CC[C@](C)(c3ccccc3)C2)cn2nc(C(=O)NC3CN(c4cccc(C(=O)O)n4)CC34COC4)nc12 (some centres unmarked) [Compound 646] | ***** (>2.5° C.=*****)
Cc1nc([C@H]2[C@@]3(C(C)(C)O)CO[C@]2(c2nc4c(C)cc(N5CC[C@](C)(c6ccccc6)C5)cn4n2)C3)n[nH]1 [Compound 541] | ***** (>2.5° C.=*****)
CNC(=O)c1nc2c(Cc3nc(CC(=O)O)n[nH]3)cc(N3CC[C@](C)(c4ccccc4)C3)cn2n1 [Compound 759, 2-[5-[[2-(methylcarbamoyl)-6-[(3R)-3-methyl-3-phenyl-pyrrolidin-1-yl]-[1,2,4]triazolo[1,5-a]pyridin-8-yl]methyl]-1H-1,2,4-triazol-3-yl]acetic acid] | **** (>1.5-2.5° C.=****)
Cc1cc(N2CC[C@](C)(c3ccccc3)C2)cn2nc(C34CC(CO3)C4COC3CCN(c4ccnc(C(=O)O)c4)CC3)nc12 (some centres unmarked) [Compound 502] | ***** (>2.5° C.=*****)
Cc1cc(N2CCC(C)(n3cc(C(F)(F)F)cn3)C2)cn2nc(C(=O)N3CC[C@@]4(CCN(c5cccc(C(=O)O)n5)C4)C3)nc12 (stereo partly drawn) [Compound 744, 6-[(5R)-2-[8-methyl-6-[3-methyl-3-[4-(trifluoromethyl)pyrazol-1-yl]pyrrolidin-1-yl]-[1,2,4]triazolo[1,5-a]pyridine-2-carbonyl]-2,7-diazaspiro[4.4]nonan-7-yl]pyridine-2-carboxylic acid] | ***** (>2.5° C.=*****)
CO[C@H]1CN(c2cccc(C(=O)O)n2)CC1NC(=O)c1nc2c(C)cc(N3CC[C@](C)(c4ccccc4)C3)cn2n1 (some centres unmarked) [Compound 666] | ***** (>2.5° C.=*****)
Cc1cc(N2CC[C@](C)(c3ccccc3)C2)cn2nc(C(=O)N3CCC4(CCN4c4ccnc(C(=O)O)c4)C3)nc12 (some centres unmarked) [Compound 621] | ***** (>2.5° C.=*****)
Cc1n[nH]c(C2C3(NC(=O)[C@@H]4CC[C@H](C(=O)O)O4)COC2(c2nc4c(C)cc(N5CC[C@](C)(c6ccccc6)C5)cn4n2)C3)n1 (stereo partly drawn) [Compound 538, (2R,5S)-5-((5-(3-methyl-1H-1,2,4-triazol-5-yl)-1-(8-methyl-6-((R)-3-methyl-3-phenylpyrrolidin-1-yl)-[1,2,4]triazolo[1,5-a]pyridin-2-yl)-2-oxabicyclo[2.1.1]hexan-4-yl)carbamoyl)tetrahydrofuran-2-carboxylic acid] | ***** (>2.5° C.=*****)
Cc1cc(N2CC[C@](C)(c3ccccc3)C2)cn2nc(C34CC(N5CC6(CC6C(=O)O)C5)(CO3)C4)nc12 (stereo partly drawn) [Compound 470, 5-[1-[8-methyl-6-[(3R)-3-methyl-3-phenyl-pyrrolidin-1-yl]-[1,2,4]triazolo[1,5-a]pyridin-2-yl]-2-oxabicyclo[2.1.1]hexan-4-yl]-5-azaspiro[2.3]hexane-2-carboxylic acid] | ***** (>2.5° C.=*****)
Cc1cc(N2CC[C@](C)(c3ccccc3)C2)cn2nc(C34CC(CO3)C4N3CC4(CCOCC4)NC3=O)nc12 (some centres unmarked) [Compound 522] | ***** (>2.5° C.=*****)
Cc1cc(N2CC[C@](C)(c3ccccc3)C2)cn2nc(C34CC(C(=O)N5CC6C(C5)C6C(=O)O)(CO3)C4)nc12 (some centres unmarked) [Compound 445] | ***** (>2.5° C.=*****)
